Data as given in US20210386752A1, “Uses of Electron Transport Chain Complex I or Complex II Inhibitors in Treating Cancer, Combination Therapies, and Diagnostic Methods Related Thereto” (Emory University, priority 2020, published 2021).
Read-outs that look alike come from different tables or passages of the source.

How the values were obtained:
[1] = system: venetoclax-resistant MM lines; assay: Venetoclax sensitization of resistant MM lines by ETC inhibitor cotreatment, viability by AnnexinV/DAPI staining; assay type: cell-based
Experimental: Cell viability assessed by AnnexinV/DAPI staining.
Given the unique role of Complex II in directly connecting the TCA cycle to the ETC, the impact of selectively inhibiting either the SDH or SQR activities of Complex II on venetoclax sensitivity was tested. The venetoclax sensitization effects of TTFA (SQR inhibitor) or 3NPA (SDH inhibitor) were tested on eight venetoclax-resistant MM lines (FIG. 3A-3H). 3NPA is a structural analog of succinate, which binds irreversibly with SDH inhibiting FAD reduction and fumarate production while TTFA is a direct Qp site inhibitor. […] The efficacy of the TTFA-venetoclax cotreatment strategy was also tested in a colony-forming unit assay. MM lines (L363 and KMS11) were cultured in an agar matrix with single agents or the combination.
To further inquire whether Complex I inhibition could also sensitize MM cells to venetoclax, a Complex I inhibitor was tested ([…]).

ATF4, NOXA = assay: Immunoblot of whole cell lysates for ATF4 and NOXA; assay type: cell-based; details: 25 nM IACS-010759, 24 h
[2] = system: CD38+ CD45− gated MM cells from myeloma patient bone marrow aspirates; assay: Ex vivo venetoclax sensitivity of myeloma patient samples, Annexin V staining; assay type: cell-based, human; details: nine patient samples, IACS-010759
Experimental: CD38-PE and CD45-APC-Cy7 were used to gate myeloma cells. n=50 biological independent samples.
Bone marrow aspirate samples from 50 MM patients were treated with three doses of venetoclax (0.01, 0.1 and 0.5 μM) or TTFA (100 μM), or the combination for 24 h and cell death was assessed by AnnexinV staining. […] A venetoclax ICso <0.1 μM is characterized as a sensitive sample.
Bone marrow aspirates or peripheral blood samples from consenting myeloma patients were diluted to 25 mL with PBS and over laid on lymphocyte separation media. Following centrifugation, the collected buffy coat was washed with PBS and resuspended in culture medium. Cells subject to various treatments were stained with anti-CD38-phyocerythrin and anti-CD45-allophycocyanin-Cy7 to identify MM cells. CD138+ cells were purified using MACS CD138+ human microbeads. IC50S of venetoclax alone or in combination with TTFA/IACS-010759 in myeloma samples were calculated using nonlinear regression (curve-fit) analysis under agonist vs. normalized response with variable slope.

[3] = system: non-MM cells contained within the aspirate
Experimental: Bone marrow aspirate samples from 50 MM patients were treated with three doses of venetoclax (0.01, 0.1 and 0.5 μM) or TTFA (100 μM), or the combination for 24 h and cell death was assessed by AnnexinV staining.
The efficacy of IACS-010759 in sensitizing was tested in […] patient samples to venetoclax.

MM = assay: IACS-010759 in combination with anti-myeloma agents, cell death in MM cells; assay type: cell-based
MCL-1 = MCL-1 expression in MM cells; assay type: cell-based; details: KMS12PE
MM cell lines = assay: Cell death of MM cell lines with single-agent venetoclax, AnnexinV/DAPI flow cytometric staining; assay type: cell-based; details: 0.5 μM venetoclax, 24 h, panel of MM lines
Experimental: Percent live normalized to vehicle control, with cell lines grouped by sensitivity. n=3 independent experiments.
Differential venetoclax sensitivity was assessed in a panel of MM lines. […] The pattern of increased sensitivity of these cell lines was selective for venetoclax and not detected with other standard myeloma therapeutics i.e. bortezomib and melphalan or sensitivity to the MCL-1 inhibitor […] as reported for the KMS12BM, KMS12PE, KMS11, MM.1 S, JJN3, RPMI-8226 and L363 lines.

MM patients = details: cited from earlier work
L363, KMS11 and KMS21BM = assay: ATP levels after ETC complex III, IV, V inhibition; assay type: cell-based; details: after 24 h, at the doses used
Experimental: Experiments were performed to determine whether inhibition of Complex III, IV and V could also sensitize resistant MINI to venetoclax.

AML = details: targeting Complex II; cited from earlier work
[4] = system: bone marrow plasma cells and memory B cells; details: murine immune system; cited from earlier work
[5] = L363, KMS11, KMS21BM, doses reducing ATP by about 50% after 24 h

Molecule: Cc1nc(-c2nc(-c3ccc(OC(F)(F)F)cc3)no2)nn1Cc1cccc(N2CCC(S(C)(=O)=O)CC2)c1 [IACS-010759, 5-(5-methyl-1-(3-(4-(methylsulfonyl)piperidin-1-yl)benzyl)-1H-1,2,4-triazol-3-yl)-3-(4-(trifluoromethoxy)phenyl)-1,2,4-oxadiazole]
- IC50 of venetoclax on cotreatment ([1]; 25 nM IACS-010759, tested cell lines): significantly reduced the IC50 of venetoclax
- sensitization to 0.5 μM venetoclax ([1]; KMS11, L363, KMS21BM, increasing doses of IACS-010759, 24 h): sensitized cells to 0.5 μM venetoclax
- sensitization to venetoclax ([1]; KMS21BM, TTFA at 100 μM): enough to sensitize KMS21BM to venetoclax
- protein expression of ATF4, NOXA (ATF4, NOXA): induction of ATF4 and NOXA
- samples with >50% reduction in the IC50 of venetoclax [2]: five of the samples
- samples with increased venetoclax sensitivity [2]: Eight out of nine samples showed increased sensitivity
- viability of non-MM cells [3]: minimal impact on the viability of non-MM cells
- effect on carfilzomib (CFZ) response (MM; 24 hr dose response): antagonizes MM to proteasome inhibitor carfilzomib
- effect on bortezomib induced cell death (MM; L363, 24 hr treatment): antagonizes MM to proteasome inhibitor bortezomib induced cell death
- effect on melphalan induced cell death (MM; L363, 24 hr treatment): sensitizes myeloma to melphalan induced cell death
- effect on efficacy of dexamethasone + venetoclax (MM; MM): increases efficacy of dexamethasone (Dex) +Ven
- effect on sensitivity to dexamethasone (MM; MM): increases sensitivity of MM to Dex
- sensitization to venetoclax (ABT-199) (MM; t(11;14) MM, KMS12PE, 24 hr Ven treatment): sensitizes t(11;14) MM to venetoclax
- MCL-1 expression (MCL-1): reduces MCL-1

Molecule: O=C(O)CC[N+](=O)[O-] [3NPA]
- sensitivity to venetoclax on cotreatment ([1]; eight venetoclax-resistant MM lines, 24 h): less effective compared to TTFA

Molecule: CC1(C)CCC(CN2CCN(c3ccc(C(=O)NS(=O)(=O)c4ccc(NCC5CCOCC5)c([N+](=O)[O-])c4)c(Oc4cnc5[nH]ccc5c4)c3)CC2)=C(c2ccc(Cl)cc2)C1 [venetoclax, 2-((1H-pyrrolo[2,3-b]pyridin-5-yl)oxy)-4-(4-((4′-chloro-5,5-dimethyl-3,4,5,6-tetrahydro-[1,1′-biphenyl]-2-yl)methyl)piperazin-1-yl)-N-((3-nitro-4-(((tetrahydro-2H-pyran-4-yl)methyl)amino)phenyl)sulfonyl)benzamide]
- cytotoxicity (cell death) (MM cell lines): significant cytotoxicity primarily in t(11;14) lines
- fraction of MM patients responding to single agent (MM patients; all MM patients): approximately 7%
- fraction of patients venetoclax sensitive (MM patients; non-t(11;14) patients): < 6%
- fraction of patients venetoclax sensitive (MM patients; t(11;14) patients): ~40%

Molecule: antimycin
- sensitization to venetoclax [1, 5]: sensitized L363, KMS11 and KMS21BM to venetoclax
- reduction of ATP levels (L363, KMS11 and KMS21BM): about 50%

Molecule: Nc1ncn([C@@H]2O[C@H](CO)[C@@H](O)[C@H]2O)c(=O)n1 [azacitidine]
- venetoclax sensitivity (AML): induced venetoclax sensitivity

Molecule: C/C=C(\C)[C@H](O)[C@H](C)/C=C(C)/C=C/C/C(C)=C/Cc1nc(OC)c(OC)c(O)c1C [piericidin]
- sensitization to venetoclax ([1]; resistant MM cell lines, Complex I inhibitor): also sensitized resistant MM cell lines to venetoclax

Molecule: [N-]=[N+]=[N-] [sodium azide]
- reduction of ATP levels (L363, KMS11 and KMS21BM): about 50%

Molecule: CN(C)CC[C@H](CSc1ccccc1)Nc1ccc(S(=O)(=O)NC(=O)c2ccc(N3CCN(Cc4ccccc4-c4ccc(Cl)cc4)CC3)cc2)cc1[N+](=O)[O-] [ABT-737]
- effect on plasma cells and B cells [4]: inhibits the establishment of newly arising bone marrow plasma cells and memory B cells with no effect on pre-existing plasma cells, or germinal center B cells

Molecule: CC[C@H]1/C=C/C=C/C[C@@H](C)[C@H](O)[C@@](C)(O)C(=O)[C@@H](C)[C@H](O)[C@@H](C)C(=O)[C@@H](C)[C@H](O)[C@@H](C)/C=C/C(=O)O[C@@H]2[C@H](C)[C@H](CC1)O[C@]1(CC[C@H](C)[C@H](C[C@@H](C)O)O1)[C@H]2C [oligomycin]
- sensitization to venetoclax [1, 5]: sensitized L363, KMS11 and KMS21BM to venetoclax
- reduction of ATP levels (L363, KMS11 and KMS21BM): about 50%
